Read-outs that look alike come from different tables or passages of the source.
Tests used:
[1] = test system: THP-1 cells; assay: LPS-stimulation of THP-1 cells, TNF-α levels by ELISA; type: cell-based; settings: Homo sapiens, THP-1; LPS 1 μg/ml, 6 hrs; read-out: C—ester TNF-alpha inhibition (THP-1 cells), IC50
Experimental: THP-1 cells were plated in 100 μl at a density of 4×10^4 cells/well in V-bottomed 96 well tissue culture treated plates and incubated at 37° C. in 5% CO2 for 16 hrs. 2 hrs after the addition of the inhibitor in 100 μl of tissue culture media, the cells were stimulated with LPS (E coli strain 005:B5, Sigma) at a final concentration of 1 μg/ml and incubated at 37° C. in 5% CO2 for 6 hrs. TNF-α levels were measured from cell-free supernatants by sandwich ELISA (R&D Systems #QTA00B).

[2] = test system: human whole blood; assay: LPS-stimulation of human whole blood, TNF-α levels by ELISA; type: cell-based; settings: for IC50: Homo sapiens, LPS 100 ng/ml, 6 hrs, read-out: D—ester TNF-alpha inhibition (human whole blood), IC50
Experimental: Whole blood was taken by venous puncture using heparinised vacutainers (Becton Dickinson) and diluted in an equal volume of RPMI1640 tissue culture media (Sigma). 100 μl was plated in V-bottomed 96 well tissue culture treated plates. 2 hrs after the addition of the inhibitor in 100 μl of RPMI1640 media, the blood was stimulated with LPS (E coli strain 005:B5, Sigma) at a final concentration of 100 ng/ml and incubated at 37° C. in 5% CO2 for 6 hrs. TNF-α levels were measured from cell-free supernatants by sandwich ELISA (R&D Systems #QTA00B).

[3] = molecular target: p38 MAP Kinase a (Homo sapiens (Human), UniProt Q16539); assay: p38 MAP kinase enzyme assay (radiometric filter-binding); type: biochemical
Experimental: The ability of compounds to inhibit p38 MAP a Kinase activity was measured in an assay performed by Upstate (Dundee UK). In a final reaction volume of 25 μL, p38 MAP Kinase a (5-10 mU) is incubated with 25 mM Tris pH 7.5, 0.002 mMEGTA, 0.33 mg/mL myelin basic protein, 10 mM MgAcetate and [g-33p-ATP] (specific activity approx. 500 cpm/pmol, concentration as required). The reaction is initiated by the addition of the MgATP mix. After incubation for 40 minutes at room temperature, the reaction is stopped by the addition of 5 μL of a 3% phosphoric acid solution. 10 μL of the reaction is then spotted onto a P30 filtermat and washed three times for 5 minutes in 75 mM phosphoric acid and once in methanol prior to drying and scintillation counting.
Duplicate data points are generated from a 1/3 log dilution series of a stock solution in DMSO. Nine dilutions steps are made from a top concentration of 10 μM, and a ‘no compound’ blank is included. The standard radiometric filter-binding assay is performed at an ATP concentration at, or close to, the Km. Data from scintillation counts are collected and subjected to free-fit analysis by Prism software.

[4] = corresponding acid (hydrolysis product of the named ester) tested, read-out: B—acid enzyme assay (p38 kinase A (invitrogen)), IC50
[5] = ester tested, read-out: A—ester enzyme assay (p38 kinase A (invitrogen)), IC50

Sequence of p38 MAP Kinase a (Q16539 whole entry): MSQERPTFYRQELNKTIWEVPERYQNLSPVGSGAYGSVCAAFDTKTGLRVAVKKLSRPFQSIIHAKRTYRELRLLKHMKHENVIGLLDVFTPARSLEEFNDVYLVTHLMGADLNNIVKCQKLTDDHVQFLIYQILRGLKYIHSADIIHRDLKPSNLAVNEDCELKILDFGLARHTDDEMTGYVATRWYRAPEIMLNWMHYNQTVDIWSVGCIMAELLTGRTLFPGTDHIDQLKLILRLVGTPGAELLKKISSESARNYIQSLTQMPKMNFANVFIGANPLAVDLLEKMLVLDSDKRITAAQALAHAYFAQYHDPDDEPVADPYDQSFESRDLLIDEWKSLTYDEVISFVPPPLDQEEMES

SMILES	IC50 [1] [nM]	IC50 [2] [nM]	IC50 [3, 4] [nM]	IC50 [3, 5] [nM]	D—ester TNF-alpha inhibition (human whole blood), % at single concentration ([2]; @ 10 μm) [% @ 10 μm]
CC(C)(C)OC(=O)[C@@H](NCCc1cc(F)c(-n2c(N)c(C(=O)c3ccc(F)cc3F)ccc2=O)c(F)c1)c1ccccc1 [tert-butyl (2S)-[(2-{4-[6-amino-5-(2,4-difluoro-benzoyl)-2-oxopyridin-1(2H)-yl]-3,5-difluorophenyl}ethyl)amino] (phenyl)acetate]	2	779			
CC(C)C[C@@H](NCCc1cc(F)c(-n2c(N)c(C(=O)c3ccc(F)cc3F)ccc2=O)c(F)c1)C(=O)OC(C)(C)C [tert-butyl N-(2-{4-[6-amino-5-(2,4-difluoro-benzoyl)-2-oxopyridin-1(2H)-yl]-3,5-difluoro-phenyl}ethyl)-D-leucinate]	81		2	167	0
Nc1c(C(=O)c2ccc(F)cc2F)ccc(=O)n1-c1c(F)cc(OCCCN[C@@H](C(=O)OC2CCCC2)c2ccccc2)cc1F [Cyclopentyl (2R)-[(3-{4-[6-amino-5-(2,4-difluorobenzoyl)-2-oxopyridin-1(2H)-yl]-3,5-difluorophenoxy}propyl)amino] (phenyl)acetate]	6				
NCC[C@H](NCCCOc1cc(F)c(-n2c(N)c(C(=O)c3ccc(F)cc3F)ccc2=O)c(F)c1)C(=O)OC1CCCC1 [Cyclopentyl (2S)-4-amino-2-[(3-{4-[6-amino-5-(2,4-difluoro-benzoyl)-2-oxopyridin-1(2H)-yl]-3,5-difluoro-phenoxy}propyl)amino]butanoate]	22	479	5	1	
Nc1c(C(=O)c2ccc(F)cc2F)ccc(=O)n1-c1c(F)cc(OCCCN[C@H](C(=O)OC2CCCC2)c2ccccc2)cc1F [Cyclopentyl (S)-(3-{4-[6-Amino-5-(2,4-difluorobenzoyl)-2-oxo-2H-pyridin-1-yl]-3,5-difluoro-phenoxy}propylamino) phenyl acetate]	5.3	508			
Nc1c(C(=O)c2ccc(F)cc2)ccc(=O)n1-c1c(F)cc(OCCCN[C@H](C(=O)OC2CCCC2)c2ccccc2)cc1F [Cyclopentyl (S)-(3-{4-[6-Amino-5-(4-fluorobenzoyl)-2-oxo-2H-pyridin-1-yl]-3,5-difluoro-phenoxy}propylamino) phenylacetate]	38				
CCOC(=O)[C@H](CC(C)C)NCCCOc1cc(F)c(-n2c(N)c(C(=O)c3ccc(F)cc3)ccc2=O)c(F)c1 [Ethyl N-(3-{4-[6-amino-5-(4-fluoro-benzoyl)-2-oxopyridin-1(2H)-yl]-3,5-difluorophenoxy}propyl)-L-leucinate]	8.6			28	
CC(C)C[C@H](NCCCOc1cc(F)c(-n2c(N)c(C(=O)c3ccc(F)cc3F)ccc2=O)c(F)c1)C(=O)OCCN1CCOCC1 [2-Morpholin-4-ylethyl N-(3-{4-[6-amino-5-(2,4-difluorobenzoyl)-2-oxopyridin-1(2H)-yl]-3,5-difluoro-phenoxy}propyl)-L-leucinate]	0.4	935			
CC(C)(C)OC[C@H](NCCc1cc(F)c(-n2c(N)c(C(=O)c3ccc(F)cc3F)ccc2=O)c(F)c1)C(=O)OC(C)(C)C [tert-butyl N-(2-{4-[6-amino-5-(2,4-difluoro-benzoyl)-2-oxopyridin-1(2H)-yl]-3,5-difluorophenyl}ethyl)-O-tert-butyl-L-serinate]	83		1	72	
CC(C)C[C@H](NCCCOc1cc(F)c(-n2c(N)c(C(=O)c3ccc(F)cc3F)ccc2=O)c(F)c1)C(=O)OC(C)(C)C [tert-Butyl (S)-2-(3-{4-[6-Amino-5-(2,4-difluorobenzoyl)-2-oxo-2H-pyridin-1-yl]-3,5-difluoro-phenoxy}propyl-amino)-4-methyl pentanoate]	76.1	4270			
CC(C)C[C@H](NCCCOc1cc(F)c(-n2c(N)c(C(=O)c3ccc(F)cc3F)ccc2=O)c(F)c1)C(=O)OC1CCCC1 [Cyclopentyl (S)-2-(3-{4-[6-Amino-5-(2,4-difluorobenzoyl)-2-oxo-2H-pyridin-1-yl]-3,5-difluoro-phenoxy}propyl-amino)-4-methyl pentanoate]	10.7	594			
